Usually IC50 stands for the midpoint of a concentration-inhibition curve. A word on the Kd: it is the constant that tells how readily two partners part at equilibrium. The low end stands for a tighter complex, the high end for a looser complex.

Test [1] deals with K562. The experiment in a line: Cancer cell proliferation inhibition, CCK-8, 72 hours. The class given is cell-based. Conditions: Homo sapiens, K562, 72 h. An outline of the steps:
(§1)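 A375 cells (2×10^3/well) attached overnight, then received 9 three-fold dilutions (0.0015-10 μM). K562 and Ba/F3-T315I (1×10^4/well) were given 9-point series (3-fold and 5-fold respectively), final 0-10 μM. After 72 h at 37°C, CCK-8 was added for 2 h; blank-subtracted OD450 gave IC50.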

Test [2] addresses T1, T315I (Ba/F3) (Homo sapiens, UniProt P00519, T315I, cells depend on it).
T1 construct: fused on or other part: P11274 (Breakpoint cluster region protein)
The test is described as above. The class given is cell-based. Conditions: read-out: T315I (Ba/F3) IC50. An outline of the steps:
as §1

Test [3] deals with A375. Described as above. The class given is cell-based. Conditions: Homo sapiens, A-375, 72 h. The essentials: as §1
The test system of test [4] is SK-MEL-28. The test is described as follows: Cancer cell proliferation inhibition, MTS assay, 72 hours. The class given is cell-based. Conditions: Homo sapiens. An outline of the steps:
(§2)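 3,000 cells/well, 24 h pre-culture (37° C, 5% CO2); serial dilution of compound, top 50 μM, DMSO 0.05% v/v; 72 h exposure; MTS/PMS 2 h, OD450. IC50 = concentration giving 50% inhibition relative to DMSO control, n = 3 data sets.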
A general note: Tetrazolium assays rely on reduction of a dye to a coloured formazan, in cell work by metabolically active cells.

Test [5] concerns Huh7. Described as above. Conditions: Homo sapiens, Huh-7. The class given is cell-based. An outline of the steps:
as §2

In test [6] the target is T2, Ret^wt (Ba/F3) (Homo sapiens, UniProt P07949).
T2 construct: candidates are KIF5B, CCDC6, TEL (ETV6), or none (full-length RET)
Described as above. The class given is cell-based. Conditions: read-out: Ret^wt (Ba/F3) IC50. The essentials:
as §2

Test [7] concerns the target T3, Ret^V804M (Ba/F3) (Homo sapiens, UniProt P07949, V804M, cells depend on it, form not given).
T3 construct: candidates are KIF5B, CCDC6, TEL (ETV6), or none (full-length RET)
The test is described as above. The class given is cell-based. Conditions: read-out: Ret^V804M (Ba/F3) IC50. The essentials: as §2

Test [8] relates to Ret^Parental (Ba/F3). The test is described as above. The class given is cell-based. Conditions: Mus musculus, BaF3. An outline of the steps:
as §2

For test [9], the system named is MDA-MB-231. The experiment in a line: Real time cell proliferation, IncuCyte ZOOM, 72 hours. In kind it is cell-based. Conditions: Homo sapiens, MDA-MB-231, 72 h.
For test [10], the system named is FYN (MCP-1). The experiment in a line: Cancer cell proliferation inhibition, MTS assay, 72 hours. The class given is cell-based. An outline of the steps: as §2
For test [11], the system named is FYN (FN). Described as above. The class given is cell-based. An outline of the steps:
as §2

Test [12] relates to RET (LC2/ad-CDC6). The test is described as above. In kind it is cell-based. Conditions: 72 h. An outline of the steps:
as §2

The subject of test [13] is M-NFS-60. The test is described as follows: Cancer cell proliferation inhibition, CCK-8, 72 hours. In kind it is cell-based. The essentials:
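Cells were grown in RPMI with 10% FBS, 0.05 mM 2-mercaptoethanol and human M-CSF, and seeded at 20000 cells/well. Compounds were added from a 3-fold DMSO dilution series topping at 1968 nM (dilution-plate concentration; 11 points including DMSO control). After 72 h at 37 °C, CCK-8 was added for 2 h and OD450 read.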

For test [14], the target named is T4, FGFR4 (Homo sapiens, UniProt P22455).
T4 construct: purchased Reaction Biology Co
The experiment in a line: Enzyme inhibitory activity (Kd), Reaction Biology Co. The class given is binding. Here is the method: (§3) The following experiment was performed to evaluate the enzyme inhibitory activity of the compound of the present invention.
(§4) Particularly, the enzyme inhibitory activity of the compound of the present invention against BLK, CDK11, CHEK1, CSF1R, EPHB6, FGFR4, FGR, FLT3, FYN, GCN2 (Kin.Dom.2, S808G), HCK, JAK2 (JH1domain-catalytic), LCK, LOK, LYN, RET, RET (V804M), SRC and YES was investigated by Reaction Biology Co. The results are shown in Table 2 below.

Test [15] has as its target T5, RET(V804M) (Homo sapiens, UniProt P07949, V804M).
T5 construct: purchased Reaction Biology Co
The description is as above. The class given is binding. Here is the method: as §3, §4

Test [16] concerns the target T6, RET (Homo sapiens, UniProt P07949).
T6 construct: purchased Reaction Biology Co
The description is as above. The class given is binding. Here is the method: as §3, §4

T6 sequence (P07949 29-1114): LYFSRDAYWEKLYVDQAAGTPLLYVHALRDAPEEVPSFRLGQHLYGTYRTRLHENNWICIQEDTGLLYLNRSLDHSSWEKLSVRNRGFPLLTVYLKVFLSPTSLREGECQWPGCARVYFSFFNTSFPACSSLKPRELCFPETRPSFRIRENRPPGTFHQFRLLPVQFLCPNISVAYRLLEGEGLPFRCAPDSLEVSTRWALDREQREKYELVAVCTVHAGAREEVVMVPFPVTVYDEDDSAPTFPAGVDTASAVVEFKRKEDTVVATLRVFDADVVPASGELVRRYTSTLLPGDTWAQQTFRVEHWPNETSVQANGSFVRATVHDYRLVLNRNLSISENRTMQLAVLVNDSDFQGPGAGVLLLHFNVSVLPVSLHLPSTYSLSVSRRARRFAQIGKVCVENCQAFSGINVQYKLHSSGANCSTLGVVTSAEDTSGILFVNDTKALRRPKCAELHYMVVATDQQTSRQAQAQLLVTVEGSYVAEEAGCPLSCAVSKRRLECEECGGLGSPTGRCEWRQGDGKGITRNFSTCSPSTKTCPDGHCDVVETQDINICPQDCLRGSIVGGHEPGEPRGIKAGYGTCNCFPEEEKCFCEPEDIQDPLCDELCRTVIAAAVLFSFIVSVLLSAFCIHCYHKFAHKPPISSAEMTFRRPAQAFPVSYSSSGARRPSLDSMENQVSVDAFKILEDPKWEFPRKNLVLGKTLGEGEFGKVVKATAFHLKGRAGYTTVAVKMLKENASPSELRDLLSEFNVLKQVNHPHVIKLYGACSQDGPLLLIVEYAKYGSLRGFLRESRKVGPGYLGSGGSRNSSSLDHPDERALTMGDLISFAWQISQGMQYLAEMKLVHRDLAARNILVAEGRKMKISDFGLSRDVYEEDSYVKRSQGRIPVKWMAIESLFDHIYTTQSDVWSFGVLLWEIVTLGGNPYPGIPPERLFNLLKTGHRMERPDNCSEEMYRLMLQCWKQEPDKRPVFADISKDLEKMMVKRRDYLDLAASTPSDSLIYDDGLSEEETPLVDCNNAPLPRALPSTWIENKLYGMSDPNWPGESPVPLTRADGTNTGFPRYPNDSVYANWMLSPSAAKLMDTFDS
T4 sequence (P22455 22-802): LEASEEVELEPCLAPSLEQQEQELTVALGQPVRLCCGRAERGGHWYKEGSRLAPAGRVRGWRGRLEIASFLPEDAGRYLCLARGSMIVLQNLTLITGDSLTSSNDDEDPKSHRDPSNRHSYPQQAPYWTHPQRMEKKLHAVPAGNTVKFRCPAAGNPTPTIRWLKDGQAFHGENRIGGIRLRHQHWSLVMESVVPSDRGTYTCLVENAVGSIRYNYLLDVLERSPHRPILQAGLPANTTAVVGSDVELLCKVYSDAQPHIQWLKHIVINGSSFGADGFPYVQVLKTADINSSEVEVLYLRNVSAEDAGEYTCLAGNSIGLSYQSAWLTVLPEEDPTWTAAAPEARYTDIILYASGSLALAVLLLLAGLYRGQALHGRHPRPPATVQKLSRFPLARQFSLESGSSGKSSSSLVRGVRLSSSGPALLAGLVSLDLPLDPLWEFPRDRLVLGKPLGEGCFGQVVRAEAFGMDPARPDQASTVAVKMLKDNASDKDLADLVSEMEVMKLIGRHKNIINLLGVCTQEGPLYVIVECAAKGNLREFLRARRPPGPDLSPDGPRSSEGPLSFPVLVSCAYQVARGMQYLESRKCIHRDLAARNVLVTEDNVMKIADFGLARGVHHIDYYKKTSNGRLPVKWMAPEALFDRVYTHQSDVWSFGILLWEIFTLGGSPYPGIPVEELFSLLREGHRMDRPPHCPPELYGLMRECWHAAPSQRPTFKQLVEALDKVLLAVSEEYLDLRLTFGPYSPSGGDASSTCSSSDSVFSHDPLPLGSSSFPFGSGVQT
T5 sequence (P07949 29-1114 V804M): as the sequence (P07949 29-1114) above, with V776M counted along it
T2 sequence (P07949 whole entry, change not shown): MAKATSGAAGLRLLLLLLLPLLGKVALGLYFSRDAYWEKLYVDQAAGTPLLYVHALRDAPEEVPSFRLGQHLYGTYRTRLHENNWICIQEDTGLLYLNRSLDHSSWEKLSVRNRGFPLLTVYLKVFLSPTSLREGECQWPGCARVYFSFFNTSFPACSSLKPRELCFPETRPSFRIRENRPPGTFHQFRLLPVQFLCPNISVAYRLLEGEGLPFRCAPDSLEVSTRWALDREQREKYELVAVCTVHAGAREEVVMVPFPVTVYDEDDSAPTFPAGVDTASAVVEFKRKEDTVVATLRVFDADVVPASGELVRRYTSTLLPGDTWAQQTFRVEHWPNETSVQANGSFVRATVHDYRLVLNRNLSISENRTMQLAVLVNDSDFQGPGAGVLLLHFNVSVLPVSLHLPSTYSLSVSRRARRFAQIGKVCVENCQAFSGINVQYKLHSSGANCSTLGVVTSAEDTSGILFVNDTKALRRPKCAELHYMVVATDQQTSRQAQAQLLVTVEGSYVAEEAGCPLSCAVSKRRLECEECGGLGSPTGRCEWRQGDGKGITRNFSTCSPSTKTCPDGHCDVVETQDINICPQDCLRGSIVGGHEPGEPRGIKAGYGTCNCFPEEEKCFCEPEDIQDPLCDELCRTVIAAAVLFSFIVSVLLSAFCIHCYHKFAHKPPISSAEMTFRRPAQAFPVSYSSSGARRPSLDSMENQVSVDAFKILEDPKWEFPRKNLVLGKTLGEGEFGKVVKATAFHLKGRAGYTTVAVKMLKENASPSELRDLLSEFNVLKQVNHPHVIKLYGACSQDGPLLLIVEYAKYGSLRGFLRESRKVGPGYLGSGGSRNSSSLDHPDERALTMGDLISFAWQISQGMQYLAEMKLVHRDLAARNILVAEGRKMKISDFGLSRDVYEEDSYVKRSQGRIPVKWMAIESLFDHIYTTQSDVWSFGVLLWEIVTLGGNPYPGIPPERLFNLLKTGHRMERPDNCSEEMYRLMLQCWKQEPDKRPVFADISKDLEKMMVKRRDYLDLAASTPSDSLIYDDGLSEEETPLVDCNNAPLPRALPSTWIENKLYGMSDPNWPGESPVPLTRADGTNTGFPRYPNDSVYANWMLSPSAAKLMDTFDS
T3 sequence (P07949 whole entry V804M, form open): as the sequence (P07949 whole entry, change not shown) above, with V804M counted along it

For `Cc1ccc(C(=O)Nc2ccc(Cl)cc2)cc1C#Cc1cnc2c(Nc3cnn(C)c3)cccn12` [Example 7, N-(4-chlorophenyl)-4-methyl-3-((8-((1-methyl-1H-pyrazol-4-yl)amino)imidazo[1,2-a]pyridin-3-yl)ethynyl)benzamide], the half-maximal inhibitory concentration (IC50) in [1] is 2 nM; in [3], 6210 nM; in test [4], 6210 nM; in [5], 4800 nM; in test [8] it was 7500 nM; in test [9], over 10000 nM. The GI50 in [2] was over 10000 nM; in test [6] it was 798 nM; in test [7] it was 1920 nM.

Turning to `Cc1ccc(C(=O)Nc2ccc(CN3CCN(C)CC3)c(C(F)(F)F)c2)cc1C#Cc1cnc2c(Nc3ncccc3F)cccn12` [Example 16, 3-((8-((3-fluoropyridin-2-yl)amino)imidazo[1,2-a]pyridin-3-yl)ethynyl)-4-methyl-N-(4-((4-methylpiperazin-1-yl)methyl)-3-(trifluoromethyl)phenyl)benzamide], the concentration for half-maximal inhibition (IC50) in [1] was 76 nM; in [3] it was over 10000 nM; in test [4] it was 1840 nM; in [5] it was 9860 nM; in [10] it was under 10000 nM; in [11] it was under 10000 nM. The IC50 in test [12] was under 1000 nM; in [9], 1620 nM. The GI50 in [2] came out at 54.5 nM; in [6], 320 nM; in test [7] it was 13000 nM.

`Cc1ccc(C(=O)Nc2ccc(CN3CCN(C)CC3)c(C(F)(F)F)c2)cc1C#Cc1cnc2c(Nc3cnn(CCCN(C)C)c3)cccn12` [Example 26, 3-((8-((1-(3-(dimethylamino)propyl)-1H-pyrazol-4-yl)amino)imidazo[1,2-a]pyridin-3-yl)ethynyl)-4-methyl-N-(4-((4-methylpiperazin-1-yl)methyl)-3-(trifluoromethyl)phenyl)benzamide]: the IC50 is under 1 nM in [1]; 830 nM in test [3]; 1920 nM in [4]; 24 nM in test [5]; 3130 nM in test [10]; under 100 nM in test [12]. Moreover, the results for the IC50 in test [13] and in test [9] were 119 nM and 1300 nM, respectively. The GI50 in test [2] amounted to 158 nM. Further, the Kd in [14] was 82 nM; in test [15], 12 nM; in test [16], 7.9 nM.

On to `Cc1ccc(C(=O)Nc2ccc(CN3CCN(C)CC3)c(C(F)(F)F)c2)cc1C#Cc1cnc2c(Nc3ncccc3C)cccn12` [Example 18, 4-methyl-N-(4-((4-methylpiperazin-1-yl)methyl)-3-(trifluoromethyl)phenyl)-3-((8-((3-methylpyridin-2-yl)amino)imidazo[1,2-a]pyridin-3-yl)ethynyl)benzamide], for which the IC50 in test [1] was 97 nM; in test [3] it was over 10000 nM; in test [5], 3060 nM; in test [10], under 10000 nM; in test [11] it was under 10000 nM; in test [9], 8380 nM. Further, the GI50 in [2] is over 10000 nM; in [6] it was 19400 nM.

`CCN1CCN(Cc2ccc(NC(=O)c3ccc(C)c(C#Cc4cnc5c(Nc6ccn(C)n6)cccn45)c3)cc2C(F)(F)F)CC1` [Example 10, N-(4-((4-ethylpiperazin-1-yl)methyl)-3-(trifluoromethyl)phenyl)-4-methyl-3-((8-((1-methyl-1H-pyrazol-3-yl)amino)imidazo[1,2-a]pyridin-3-yl)ethynyl)benzamide]: the half-maximal inhibitory concentration (IC50) in [1] was under 1 nM; in test [3], 259 nM; in test [4], 792 nM; in test [5] it was 127 nM; in [10], under 100 nM; in test [11], under 100 nM. Moreover, the IC50 in test [8] came to 2520 nM; in test [13], 170 nM; in [9], 288 nM. The values for the GI50 in [2], in test [6] and in test [7] were 37.1 nM, 4 nM and 23 nM, respectively.

Consider `CCN1CCN(Cc2ccc(NC(=O)c3ccc(C)c(C#Cc4cnc5c(Nc6cnn(C(C)C)c6)cccn45)c3)cc2C(F)(F)F)CC1` [Example 15, N-(4-((4-ethylpiperazin-1-yl)methyl)-3-(trifluoromethyl)phenyl)-3-((8-((1-isopropyl-1H-pyrazol-4-yl)amino)imidazo[1,2-a]pyridin-3-yl)ethynyl)-4-methylbenzamide], for which the IC50 in test [1] is 3 nM; in [3] it was 297 nM; in test [4] it was 1170 nM; in [5] it was 67 nM; in test [10] it was under 100 nM; in test [11], under 100 nM. Also, the IC50 in test [12] was over 10 nM; in test [8], 2160 nM; in test [9], 569 nM. For the same molecule, the GI50 in [2] turned out to be 47.4 nM; in [6], 6 nM; in [7], 18 nM. Besides, the Kd turned out to be 130 nM in [14], 17 nM in [15] and 16 nM in [16].

For `CCN1CCN(Cc2ccc(NC(=O)c3ccc(C)c(C#Cc4cnc5c(Nc6ncccc6F)cccn45)c3)cc2C(F)(F)F)CC1` [Example 17, N-(4-((4-ethylpiperazin-1-yl)methyl)-3-(trifluoromethyl)phenyl)-3-((8-((3-fluoropyridin-2-yl)amino)imidazo[1,2-a]pyridin-3-yl)ethynyl)-4-methylbenzamide], the IC50 in test [1] is 85 nM; in [3], over 10000 nM; in test [4], 1700 nM; in test [5] it was 2860 nM; in [10], under 10000 nM; in [11], under 10000 nM. In addition, the IC50 in test [9] came to 9480 nM. The GI50 worked out at 1470 nM in [2] and 434 nM in [6].

For the molecule `Cc1ccc(C(=O)Nc2ccc(CN3CCC(N(C)C)C3)c(C(F)(F)F)c2)cc1C#Cc1cnc2c(Nc3cnn(C(C)C)c3)cccn12` (stereo not drawn) [Example 30, N-(4-((3-(dimethylamino)pyrrolidin-1-yl)methyl)-3-(trifluoromethyl)phenyl)-3-((8-((1-isopropyl-1H-pyrazol-4-yl)amino)imidazo[1,2-a]pyridin-3-yl)ethynyl)-4-methylbenzamide], the IC50 is under 1 nM in [1]; 758 nM in test [3]; 1110 nM in test [4]; 17 nM in test [5]; 7790 nM in test [10]; 100 nM in test [12]. Also, the IC50 in test [9] came to 1380 nM. Besides, in test [2], the GI50 is 126 nM. Besides, the Kd in test [14] was determined as 190 nM; in test [15], 13 nM; in [16] it was 9.3 nM.

With `Cc1ccc(C(=O)Nc2cccc(C(F)(F)F)c2)cc1C#Cc1cnc2c(Nc3cnn(C)c3)cccn12` [Example 13, 4-methyl-3-((8-((1-methyl-1H-pyrazol-4-yl)amino)imidazo[1,2-a]pyridin-3-yl)ethynyl)-N-(3-(trifluoromethyl)phenyl)benzamide], the IC50 was under 1 nM in test [1]; 1500 nM in test [3]; 2220 nM in [4]; 309 nM in [5]; under 1000 nM in test [10]; under 1000 nM in [11]. The IC50 in test [12] is under 100 nM; in test [13], 46.4 nM; in test [9] it was 1580 nM. The results for the GI50 in test [2], in test [6] and in test [7] were 7.06 nM, 16 nM and 172 nM, respectively.

The values above are taken from patent US10870647B2, “Imidazopyridine derivative, method for preparing same, and pharmaceutical composition containing same as active ingredient for preventing or treating cancer” (DAEGU-GYEONGBUK MEDICAL INNOVATION FOUNDATION, priority 2016, dated 2020).
